Reference: ChEMBL document CHEMBL1158733, “Iso-, nor-, and dinor-spiculoic acids A, polyketides from the marine sponge Plakortis zyggompha” (2005)
Active and inactive are the calls of the source. The calls are words filed in the database; no cut-off is given here.

What was measured:
Format in all cases: functional
A549 = assay: Cytotoxicity against human A549 cells SRB assay
HT-29 = assay: Cytotoxicity against human HT-29 cells SRB assay
MDA-MB-231 = assay: Cytotoxicity against human MDA-MB-231 cells SRB assay

Row | Compound | GI50 (A549) [µM] | GI50 (HT-29) [µM] | GI50 (MDA-MB-231) [µM] | Activity (A549) | Activity (HT-29) | Activity (MDA-MB-231)
1 | CCC1=C[C@](/C=C/c2ccccc2)(CC)[C@@](CC)(C(=O)O)[C@H]2[C@H]1[C@@H](CC)C(=O)[C@@H]2C [ISOSPICULOIC ACID A] | 15 | 15 | > 25 | – | – | –
2 | CC[C@@]1(/C=C/c2ccccc2)C=C(C)[C@H]2[C@@H]([C@@H](C)C(=O)[C@@H]2C)[C@]1(CC)C(=O)O | – | – | – | inactive | inactive | inactive
3 | CCC1=C[C@](/C=C/c2ccccc2)(CC)[C@@](CC)(C(=O)O)[C@H]2[C@H]1[C@@H](C)C(=O)[C@@H]2C [NOR-SPICULOIC ACID A] | 15 | 15 | > 25 | – | – | –
